We go through twelve compounds from patent US20200392161A1, “SHP2 PHOSPHATASE INHIBITORS AND METHODS OF USE THEREOF” (Relay Therapeutics, Inc., priority 2018, published 2020).

Structures are written as SMILES. Where a name gives a salt, the structure may show the parent alone. Bounds are passed on as bounds.

The first assay deals with T1, SHP2 (Homo sapiens, UniProt Q06124).
T1 sequence (Q06124 1-593): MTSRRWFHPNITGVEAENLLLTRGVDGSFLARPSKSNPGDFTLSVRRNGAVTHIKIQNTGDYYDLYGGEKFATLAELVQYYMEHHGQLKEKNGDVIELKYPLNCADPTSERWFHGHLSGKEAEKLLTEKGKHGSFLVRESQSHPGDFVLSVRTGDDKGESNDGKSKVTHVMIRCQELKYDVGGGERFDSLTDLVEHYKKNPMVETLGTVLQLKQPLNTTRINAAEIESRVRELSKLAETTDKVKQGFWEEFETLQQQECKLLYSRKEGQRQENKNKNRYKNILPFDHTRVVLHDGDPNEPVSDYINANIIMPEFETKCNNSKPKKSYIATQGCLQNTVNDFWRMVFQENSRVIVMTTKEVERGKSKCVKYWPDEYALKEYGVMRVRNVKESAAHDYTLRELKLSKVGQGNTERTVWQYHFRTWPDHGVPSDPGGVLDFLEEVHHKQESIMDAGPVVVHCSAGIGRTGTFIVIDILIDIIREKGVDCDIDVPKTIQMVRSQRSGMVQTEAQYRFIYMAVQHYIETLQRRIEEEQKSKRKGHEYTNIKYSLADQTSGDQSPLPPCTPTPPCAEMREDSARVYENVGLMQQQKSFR
The assay is described as follows: SHP2 allosteric inhibition assay (DiFMUP prompt fluorescence). The settings on record: Table 3; 0.25 nM SHP2, 0.5 μM IRS1_pY1172(dPEG8)pY1222 peptide, DiFMUP 100 μM. It is filed as biochemical. The text has this: SHP2 Allosteric Inhibition Assay.
SHP2 is allosterically activated through binding of bis-tyrosyl-phosphorylated peptides to its Src Homology 2 (SH2) domains. The latter activation step leads to the release of the auto-inhibitory interface of SHP2, which in turn renders the SHP2 protein tyrosine phosphatase (PTP) active and available for substrate recognition and reaction catalysis. The catalytic activity of SHP2 was monitored using the surrogate substrate DiFMUP in a prompt fluorescence assay format.
The inhibitor dose response curves were analyzed using normalized IC50 regression curve fitting with control based normalization.
In the case of `CCOc1ccc(-c2nc(CSc3nnc(C)s3)cs2)cc1OC` [Compound C36], the 50% inhibitory concentration (IC50) is > 1000 µM.

For the compound `COc1cc(-c2nc(Cn3cccc(C(F)(F)F)c3=O)cs2)ccc1O` [Compound C21], the IC50 is < 500 µM.

Consider `CNCC1CCN(C(=O)Cc2csc(-c3ccc(Cl)cc3Cl)n2)C1` (stereo not drawn) [Compound C45], for which the IC50 is > 1000 µM.

For `COc1ccc(-c2nc(CSc3cccc[n+]3[O-])cs2)cc1OC` [Compound C16], the IC50 was < 500 µM.

For the compound `c1coc(-c2nc(CSc3nncs3)cs2)c1` [Compound C8], the IC50 lay within 500 to 1000 µM.

For the compound `COc1cc(-c2nc(CN(C)c3ccc4c(c3)OCO4)cs2)ccc1O` [Compound C11], the IC50 is < 500 µM.

Take `CC1(N)CCN(C(=O)c2csc(-c3ccccc3Cl)n2)CC1` [Compound C1, (4-amino-4-methylpiperidin-1-yl)(2-(2-chlorophenyl)thiazol-4-yl)methanone formate]: the IC50 was < 500 µM.

Turning to `O=C(O)c1csc(-c2ncccc2Cl)n1` [Compound C43], the IC50 is > 1000 µM.

Still in this assay, the particulars now being: Table 5; 0.25 nM SHP2, 0.5 μM IRS1_pY1172(dPEG8)pY1222 peptide, DiFMUP 100 μM.
As to `CC1(CN)CCN(c2cnn3c(-c4ccccc4Cl)coc23)C1` (stereo not drawn) [Compound E2, (1-(3-(2-chlorophenyl)pyrazolo[5,1-b]oxazol-7-yl)-3-methylpyrrolidin-3-yl)methanamine], the IC50 was < 50 µM.

Staying with this assay, now noted: Table 6; 0.25 nM SHP2, 0.5 μM IRS1_pY1172(dPEG8)pY1222 peptide, DiFMUP 100 μM.
`COc1nc(N2CCC(C)(N)CC2)nc2[nH]nc(-c3cccc(Cl)c3Cl)c12` [Compound F9, 1-[3-(2,3-dichlorophenyl)-4-methoxy-1H-pyrazolo[3,4-d]pyrimidin-6-yl]-4-methyl-piperidin-4-amine]: the IC50 was < 1 µM.

Consider `CC1(N)CCN(c2cc(=O)n3c(-c4cccc(Cl)c4F)n[nH]c3n2)CC1` [Compound F3, 7-(4-amino-4-methylpiperidin-1-yl)-3-(3-chloro-2-fluorophenyl)-[1,2,4]triazolo[4,3-a]pyrimidin-5(1H)-one hydrochloride], for which the concentration for half-maximal inhibition (IC50) is > 20 µM.

In the case of `Cn1c(N2CCC(C)(CN)CC2)nc2[nH]nc(N3CCc4ccccc43)c2c1=O` [Compound F4, 6-(4-(aminomethyl)-4-methylpiperidin-1-yl)-3-(indolin-1-yl)-5-methyl-1H-pyrazolo[3,4-d]pyrimidin-4(5H)-one], the IC50 is < 1 µM.

One may read the IC50 as the point on the concentration scale where inhibition reaches its midpoint.
